# In patent US5407925A (priority 1991, dated 1995):
# Experiments:
# McF-7 = conditions: breast cancer cell line McF-7; cited from earlier work
# [1] = tested on: rhabdomyosarcoma cell line; conditions: cited from earlier work
# MOLT-4 = MOLT-4 (a T-cell leukemia); cited from earlier work
# [2] = tested on: human breast cancer cells; conditions: Kubota et al. 1983; cited from earlier work
# cells in vitro = conditions: compared with 4-hydrocyclophosphamide, Redwood et al. 1982; cited from earlier work
# TE-671 [3] = experiment: intrathecal treatment of subarachnoid TE-671 human medulloblastoma xenografts in nude rats; type: in vivo, Female athymic nude rats; human medulloblastoma cell line; conditions: for loss of antigravity strength / increase in median survival: intrathecal
# [4] = clinical evidence of toxicity of intrathecal treatment in tumor-bearing nude rats; conditions: either dose (final concentration 100 uM or 250 uM)
# TE-671 [5] = conditions: medulloblastoma cell line TE-671; cited from earlier work
# [6] = tested on: Burkitt's lymphoma cell lines; conditions: De Fabritiis et al. 1985; cited from earlier work
# murine leukemia cells = conditions: Hilton 1984; cited from earlier work
# [7] = direct intrathecal administration, 100 uM in the cerebrospinal fluid; cited from earlier work
# [8] = final concentration 250 uM, p less than 0.01
compound,measurement,setting,value
"O=P1(N(CCCl)CCCl)NC(OO)CCO1 (stereo not shown) [4-HC, 4-hydroperoxycyclophosphamide]",concentration at which active,McF-7,9.5 µM
same,concentration at which active,[1],8 µM
same,concentration at which active,MOLT-4,2.5 µM
same,activity in vitro,[2],active in vitro
same,toxicity on a molar basis to cells in vitro versus 4-hydrocyclophosphamide,cells in vitro,equal toxicity on a molar basis
same,time by which loss of stepping and placing reflexes and ramp climbing ability preceded death,TE-671 [3]; both treatment studies (100 uM and 250 uM),approximately 3 days
same,loss of antigravity strength,"TE-671 [3]; final CSF concentration 100 uM, day 8 after tumor inoculation, p=0.036",delay in the loss of antigravity strength
same,increase in median survival,"TE-671 [3]; final CSF concentration 100 uM, day 8 after tumor inoculation, p=0.04",20%
same,increase in median survival,TE-671 [3]; [8],36%
same,loss of antigravity strength,TE-671 [3]; [8],further delay in the loss of antigravity strength
same,histopathology after death: subarachnoid tumor infiltrate,"TE-671 [3]; sections from all animals, 4-HC-treated and saline-treated control groups, base of the brain to the cauda equina",diffuse subarachnoid infiltrate of tumor cells
same,clinical evidence of toxicity,[4],no clinical evidence of toxicity
same,concentration at which active,TE-671 [5],12.8 µM
same,activity in vitro,[6],active in vitro
same,activity in vitro,murine leukemia cells,active in vitro
same,toxicity,[7],without producing toxicity
